One assay concerns the target human P2X7 (Homo sapiens (Human), UniProt Q99572). Nature of the assay: Human P2X7 functional assay (Ca2+ influx, Fluo-4, FDSS). The assay is classed as cell-based. As to conditions: antagonistic activity with respect to the human P2X7 receptor; BzATP final concentration 80 microM. The method, boiled down: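 HEK293 cells stably expressing C-terminally FLAG-tagged human P2X7, loaded with Fluo-4. Compounds were preincubated for 10 min at room temperature, then 80 μM BzATP (final) was added and Ca2+ fluorescence read at 540 nm (480 nm excitation) by FDSS. IC50 values come from 7-point curves, duplicate wells.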

In a further assay the target is rat P2X7 (Rattus norvegicus (Rat), UniProt Q64663). As to the kind of experiment: Rat P2X7 functional assay (Ca2+ influx, Fluo-4, FDSS). The assay is classed as cell-based. As to conditions: HEK293 cells stably expressing rat P2X7; BzATP final 10 microM; 7-point dose-response; read-out: Antagonistic activities with respect to the rat P2X7 receptor (IC50). In a few lines:
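HEK293 cells stably expressing rat P2X7 (5,000/well, plated 24 h before) loaded with Fluo-4; compounds preincubated 10 min at room temperature, then Ca2+ rise after 10 microM BzATP (final) read on FDSS (480/540 nm). IC50 from 7-point curves, duplicate wells.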

rat P2X7, sequence (Q64663 whole entry): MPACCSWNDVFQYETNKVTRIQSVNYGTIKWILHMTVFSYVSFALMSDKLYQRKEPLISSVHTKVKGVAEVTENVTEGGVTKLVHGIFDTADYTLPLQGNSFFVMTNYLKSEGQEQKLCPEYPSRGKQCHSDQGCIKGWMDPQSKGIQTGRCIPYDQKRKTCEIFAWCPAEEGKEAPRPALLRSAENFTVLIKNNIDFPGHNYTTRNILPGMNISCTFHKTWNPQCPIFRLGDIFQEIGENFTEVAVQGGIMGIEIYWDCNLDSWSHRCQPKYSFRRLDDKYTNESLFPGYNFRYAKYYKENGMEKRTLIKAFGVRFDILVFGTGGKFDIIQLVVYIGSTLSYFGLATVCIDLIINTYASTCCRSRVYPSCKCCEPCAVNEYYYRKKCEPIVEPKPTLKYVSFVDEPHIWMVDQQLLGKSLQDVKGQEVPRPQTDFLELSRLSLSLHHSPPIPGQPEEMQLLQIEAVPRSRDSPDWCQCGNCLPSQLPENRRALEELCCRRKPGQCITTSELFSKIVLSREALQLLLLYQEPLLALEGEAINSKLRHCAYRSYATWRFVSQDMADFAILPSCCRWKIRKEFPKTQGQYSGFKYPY
human P2X7, sequence (Q99572 whole entry): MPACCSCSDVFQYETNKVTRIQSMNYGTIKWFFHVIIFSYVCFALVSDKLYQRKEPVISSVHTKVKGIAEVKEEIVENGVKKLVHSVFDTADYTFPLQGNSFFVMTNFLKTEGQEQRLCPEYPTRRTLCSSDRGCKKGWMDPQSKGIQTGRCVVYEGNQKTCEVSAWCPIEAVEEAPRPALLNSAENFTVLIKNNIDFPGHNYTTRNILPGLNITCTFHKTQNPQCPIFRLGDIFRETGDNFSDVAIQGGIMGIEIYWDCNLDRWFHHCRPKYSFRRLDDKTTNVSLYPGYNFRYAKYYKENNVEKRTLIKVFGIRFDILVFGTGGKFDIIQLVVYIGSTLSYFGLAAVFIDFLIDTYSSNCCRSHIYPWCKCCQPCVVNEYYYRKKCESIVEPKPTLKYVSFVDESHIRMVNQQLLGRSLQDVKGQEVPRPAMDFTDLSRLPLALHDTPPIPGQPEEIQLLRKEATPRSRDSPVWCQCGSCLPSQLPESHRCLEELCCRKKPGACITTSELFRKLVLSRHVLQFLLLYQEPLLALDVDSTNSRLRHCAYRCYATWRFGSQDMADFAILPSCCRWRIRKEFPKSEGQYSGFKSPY

As to `O=C(NCc1ccc(F)cc1Cl)[C@]1(F)CC[C@@](O)(CNCCO)c2ncccc21` (relative stereo) [Example 56, (5S*,8R*)-N-(2-chloro-4-fluorobenzyl)-5-fluoro-8-hydroxy-8-(((2-hydroxy-ethyl)amino)methyl)-5,6,7,8-tetrahydro-quinoline-5-carboxamide], the IC50 was below 0.05 µM on human P2X7 and below 1 µM on rat P2X7.

In the case of `O=C(NCc1cc(F)c(F)cc1Cl)[C@]1(F)CC[C@H](O)c2ncccc21` [Example 163, (5S,8S)-N-(2-chloro-4,5-difluorobenzyl)-5-fluoro-8-hydroxy-5,6,7,8-tetrahydroquinoline-5-carboxamide], the figures for the IC50 on human P2X7 and on rat P2X7 were below 0.05 µM and below 1 µM, respectively.

Turning to `CO[C@H]1CC[C@@](F)(C(=O)NCc2c(F)cc(F)cc2F)c2cccnc21` [Example 341, (5S,8S)-5-fluoro-8-methoxy-N-(2,4,6-trifluorobenzyl)-5,6,7,8-tetrahydroquinoline-5-carboxamide], the IC50 on human P2X7 was 0.05 to 0.1 µM; at rat P2X7, below 1 µM.

`O=C(NCc1ccc(Cl)cc1F)[C@@H]1CC[C@H](O)c2ncccc21` [Example 78, (5R,8S)-N-(4-chloro-2-fluorobenzyl)-8-hydroxy-5,6,7,8-tetrahydroquinoline-5-carboxamide]: the IC50 was below 0.05 µM at human P2X7 and below 1 µM at rat P2X7.

Consider `O=C(NCc1ccc(F)cc1F)[C@@H]1CC[C@H](O)c2ncccc21` [Example 74, (5R,8S)-N-(2,4-difluoro-benzyl)-8-hydroxy-5,6,7,8-tetrahydroquinoline-5-carboxamide], for which the IC50 on human P2X7 was 0.101 to 0.3 µM; on rat P2X7, below 1 µM.

With `O=C(NCc1ccc(Cl)c(F)c1)[C@]1(F)CC[C@H](O)c2ncccc21` [Example 206, (5S,8S)-N-(4-chloro-3-fluorobenzyl)-5-fluoro-8-hydroxy-5,6,7,8-tetrahydroquinoline-5-carboxamide], the IC50 on human P2X7 was 0.101 to 0.3 µM; at rat P2X7 it was below 1 µM.

Consider `C[C@H](NC(=O)[C@]1(F)CC[C@H](O)c2ncccc21)c1ccc(F)cc1Cl` [Example 239, (5S,8S)-N-((S)-1-(2-chloro-4-fluorophenyl)ethyl)-5-fluoro-8-hydroxy-5,6,7,8-tetrahydroquinoline-5-carboxamide], for which the IC50 at human P2X7 was 0.101 to 0.3 µM; at rat P2X7, below 1 µM.

For `O=C(NCc1ccc(F)cc1C(F)(F)F)[C@]1(F)CC[C@@H](O)c2ncccc21` [Example 110, (5S,8R)-5-fluoro-N-(4-fluoro-2-(trifluoromethyl)benzyl)-8-hydroxy-5,6,7,8-tetrahydroquinoline-5-carboxamide], the IC50 at human P2X7 is 0.301 to 1 µM; at rat P2X7, below 1 µM.

Consider `O=C(NCc1ccc(F)cc1Cl)[C@]1(F)CC[C@@](O)(CO)c2ncccc21` [Example 306, (5S,8S)-N-(2-chloro-4-fluorobenzyl)-5-fluoro-8-hydroxy-8-(hydroxymethyl)-5,6,7,8-tetrahydroquinoline-5-carboxamide], for which the results for the IC50 against human P2X7 and at rat P2X7 were below 0.05 µM and below 1 µM, respectively.

`CSC[C@]1(O)CC[C@@](F)(C(=O)NCc2ccc(Cl)cc2Cl)c2cccnc21` [Example 287, (5S,8S)-N-(2,4-dichlorobenzyl)-5-fluoro-8-hydroxy-8 ((methylthio)methyl)-5,6,7,8-tetrahydroquinoline-5-carboxamide]: the results for the IC50 against human P2X7 and at rat P2X7 were below 0.05 µM and below 1 µM, respectively.

Consider `O=C(NCc1cccc(F)c1Cl)[C@]1(F)CC[C@H](O)c2ncccc21` [Example 169, (5S,8S)-N-(2-chloro-3-fluorobenzyl)-5-fluoro-8-hydroxy-5,6,7,8-tetrahydroquinoline-5-carboxamide], for which the IC50 on human P2X7 was below 0.05 µM; on rat P2X7 it was below 1 µM.

With `N#CC[C@]1(O)CC[C@@](F)(C(=O)NCc2c(Cl)cc(F)cc2CO)c2cccnc21` [Example 284, (5S,8R)-N-(2-chloro-4-fluoro-6-(hydroxymethyl)benzyl)-8-(cyanomethyl)-5-fluoro-8-hydroxy-5,6,7,8-tetrahydroquinoline-5-carboxamide], the IC50 on human P2X7 was below 0.05 µM; at rat P2X7 it was below 1 µM.

`O=C(NCc1cccc(Cl)c1Cl)[C@]1(F)CC[C@H](O)c2ncccc21` [Example 159, (5S,8S)-N-(2,3-dichlorobenzyl)-5-fluoro-8-hydroxy-5,6,7,8-tetrahydroquinoline-5-carboxamide]: the IC50 at human P2X7 was below 0.05 µM; on rat P2X7 it was below 1 µM.

Consider `O=C(NCc1ccc(Cl)cc1Cl)[C@]1(F)CC[C@@](O)(CO)c2ncccc21` [Example 304, (5S,8S)-N-(2,4-dichlorobenzyl)-5-fluoro-8-hydroxy-8-(hydroxymethyl)-5,6,7,8-tetrahydroquinoline-5-carboxamide], for which the IC50 on human P2X7 is below 0.05 µM; on rat P2X7, below 1 µM.

Consider `O=C(NCc1ccc(Cl)cc1F)[C@]1(F)CC[C@@](O)(CO)c2ncccc21` [Example 314, (5S,8S)-N-(4-chloro-2-fluorobenzyl)-5-fluoro-8-hydroxy-8-(hydroxymethyl)-5,6,7,8-tetrahydroquinoline-5-carboxamide], for which the figures for the half-inhibitory concentration (IC50) against human P2X7 and on rat P2X7 were 0.101 to 0.3 µM and below 1 µM, respectively.

Turning to `O=C(NCc1c(F)cc(F)cc1F)[C@]1(F)CC[C@H](O)c2ncccc21` [Example 180, (5S,8S)-5-fluoro-8-hydroxy-N-(2,4,6-trifluorobenzyl)-5,6,7,8-tetrahydroquinoline-5-carboxamide], the IC50 against human P2X7 was below 0.05 µM; on rat P2X7, below 1 µM.

Turning to `O=C(NCc1c(Cl)cc(Cl)cc1CO)C1(F)CCC(O)c2ncccc21` (centres unmarked) [Example 20, N-(2,4-dichloro-6-(hydroxymethyl)benzyl)-5-fluoro-8-hydroxy-5,6,7,8-tetrahydro quinoline-5-carboxamide], the values for the IC50 against human P2X7 and on rat P2X7 were below 0.05 µM and below 1 µM, respectively.

As for `O=C1CC[C@@](F)(C(=O)NCc2cccc(Cl)c2Cl)c2cccnc21` [Example 252, (S)-N-(2,3-dichloro-benzyl)-5-fluoro-8-oxo-5,6,7,8-tetrahydroquinoline-5-carboxamide], the IC50 at human P2X7 was below 0.05 µM; on rat P2X7 it was below 1 µM.

Regarding `Cc1cc(Cl)cc(Cl)c1CNC(=O)C1CCC(O)c2ncccc21` (centres unmarked) [Example 6, N-(2,4-dichloro-6-methyl-benzyl)-8-hydroxy-5,6,7,8-tetrahydroquinoline-5-carboxamide], the IC50 at human P2X7 was below 0.05 µM; at rat P2X7 it was below 1 µM.

As for `Cc1cc(Cl)cc(Cl)c1CNC(=O)C1(O)CCC(O)c2ncccc21` (centres unmarked) [Example 24, N-(2,4-dichloro-6-methyl-benzyl)-5,8-dihydroxy-5,6,7,8-tetrahydroquinoline-5-carboxamide], the IC50 at human P2X7 was below 0.05 µM; at rat P2X7, below 1 µM.

In the case of `CO[C@@H]1CC[C@@](F)(C(=O)NCc2c(Cl)cc(Cl)cc2CO)c2cccnc21` [Example 334, (5S,8R)-N-(2,4-dichloro-6-(hydroxymethyl)benzyl)-5-fluoro-8-methoxy-5,6,7,8-tetrahydroquinoline-5-carboxamide], the IC50 was below 0.05 µM against human P2X7 and below 1 µM at rat P2X7.

As for `C[C@@H](NC(=O)[C@]1(F)CC[C@@](O)(CO)c2ncccc21)c1ccc(F)cc1Cl` [Example 327, (5S,8S)-N-((R)-1-(2-chloro-4-fluorophenyl)ethyl)-5-fluoro-8-hydroxy-8-(hydroxymethyl)-5,6,7,8-tetrahydroquinoline-5-carboxamide], the IC50 on human P2X7 was below 0.05 µM; on rat P2X7, below 1 µM.

The values are drawn from patent publication US11077100B2, “Tetrahydroquinoline derivatives as P2X7 receptor antagonists” (RaQualia Pharma Inc., priority 2017, dated 2021).
